Measured values reported in patent US20240238423A9, “TETRAHYDROISOQUINOLINE HETEROBIFUNCTIONAL BCL-XL DEGRADERS” (Treeline Biosciences, Inc., priority 2022, published 2024).
Read-outs that look alike come from different tables or passages of the source.

Target: T1, Human BCL-XL protein (N-terminal HiBiT tagged BCL-XL in HT1080 cells) (Homo sapiens, UniProt Q07817)
T1 construct: expressed in transfected cells; host or cells: HT-1080 (ATCC CCL-121), stably transduced with lentivirus pLV-UBC-N-HiBiT-BCL-XL-PGK-puro and selected with puromycin
T1 sequence (Q07817 whole entry): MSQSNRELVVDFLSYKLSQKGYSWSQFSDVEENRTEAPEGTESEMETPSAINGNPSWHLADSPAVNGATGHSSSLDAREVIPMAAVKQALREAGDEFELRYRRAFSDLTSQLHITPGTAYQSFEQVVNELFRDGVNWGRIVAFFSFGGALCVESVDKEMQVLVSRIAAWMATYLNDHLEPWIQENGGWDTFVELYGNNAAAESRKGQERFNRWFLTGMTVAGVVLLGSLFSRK
Experiment: HiBiT based degradation assay
Assay type: cell-based
Details: HT1080 cells expressing HiBiT-BCL-XL; for Ymin (24 h) / Ymin (6 h): BCL-XL degradation normalized with DMSO control; for DC50: BCL-XL degradation
Summary of the method: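 HT1080 cells stably transduced by lentivirus with N-terminally HiBiT-tagged human BCL-XL and kept under 1 μg/mL puromycin selection were seeded at three thousand cells per well in 40 μL RPMI 1640 into 384-well plates pre-spotted with compounds across a concentration range. Luminescence was read on a PHERAstar FSX, normalized to DMSO, and fitted with a four-parameter logistic model.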

Ymin (24 h)	DC50 (24 h, read-out: EC50 (24 h)) [µM]	Ymin (6 h)	DC50 (6 h, read-out: EC50 (6 h)) [µM]	SMILES
B (50% ≤ Ymin < 70%)	< 0.1	–	–	Cc1c(OCC[C@H]2CCCN(CC(=O)Nc3ccc4c(C5CCC(=O)NC5=O)nn(C)c4c3)C2)cccc1-c1ccc(N2CCc3cccc(C(=O)Nc4nc5ccccc5s4)c3C2)nc1C(=O)O (stereo partly drawn) [Compound 180b, 6-(8-(benzo[d]thiazol-2-ylcarbamoyl)-3,4-dihydroisoquinolin-2(1H)-yl)-3-(3-(2-((3R)-1-(2-((3-(2,6-dioxopiperidin-3-yl)-1-methyl-1H-indazol-6-yl)amino)-2-oxoethyl)piperidin-3-yl)ethoxy)-2-methylphenyl)picolinic acid]
–	–	B (50% ≤ Ymin < 70%)	0.1 to 1	Cc1c(-c2ccc(N3CCc4cccc(C(=O)Nc5nc6ccccc6s5)c4C3)nc2C(=O)NCCCCCCCCCCCC(=O)Nc2ccc3c(C4CCC(=O)NC4=O)nn(C)c3c2)cnn1CC12CC3CC(CC(C3)C1)C2 (stereo not shown) [Compound 113, 2-(5-(1-((3r,5r,7r)-adamantan-1-ylmethyl)-5-methyl-1H-pyrazol-4-yl)-6-((12-((3-(2,6-dioxopiperidin-3-yl)-1-methyl-1H-indazol-6-yl)amino)-12-oxododecyl)carbamoyl)pyridin-2-yl)-N-(benzo[d]thiazol-2-yl)-1,2,3,4-tetrahydroisoquinoline-8-carboxamide]
A (Ymin < 50%)	< 0.1	–	–	Cc1c(OCCC[C@@H]2CCN(CC(=O)Nc3ccc4c(C5CCC(=O)NC5=O)nn(C)c4c3)[C@@H](C)C2)cccc1-c1ccc(N2CCc3cccc(C(=O)Nc4nc5ccccc5s4)c3C2)nc1C(=O)O (stereo partly drawn) [Compound 343c, 6-(8-(benzo[d]thiazol-2-ylcarbamoyl)-3,4-dihydroisoquinolin-2(1H)-yl)-3-(3-(3-((2S,4R)-1-(2-((3-(2,6-dioxopiperidin-3-yl)-1-methyl-1H-indazol-6-yl)amino)-2-oxoethyl)-2-methylpiperidin-4-yl)propoxy)-2-methylphenyl)picolinic acid]
A (Ymin < 50%)	< 0.1	–	–	Cn1nc(C2CCC(=O)NC2=O)c2ccc(NC(=O)CN3CCC(CCCOc4cccc(-c5ccc(N6CCc7cccc(C(=O)Nc8nc9ccccc9s8)c7C6)nc5C(=O)O)c4C(F)(F)F)CC3)cc21 (stereo not shown) [Compound 313, 6-[8-(1,3-benzothiazol-2-ylcarbamoyl)-3,4-dihydro-1H-isoquinolin-2-yl]-3-[3-[3-[1-[2-[[3-(2,6-dioxo-3-piperidyl)-1-methyl-indazol-6-yl]amino]-2-oxo-ethyl]-4-piperidyl]propoxy]-2-(trifluoromethyl)phenyl]pyridine-2-carboxylic acid]
A (Ymin < 50%)	< 0.1	–	–	Cc1c(O[C@H]2CC[C@H](CC[C@@H](C)CN3CCN(c4ccc5c(C6CCC(=O)NC6=O)nn(C)c5c4)CC3)CC2)cccc1-c1ccc(N2CCc3cccc(C(=O)Nc4nc5ccccc5s4)c3C2)nc1C(=O)O (single isomer, unassigned) [Compound 308a]
A (Ymin < 50%)	< 0.1	–	–	Cc1cc(OCCC[C@@H]2CCN(CC(=O)Nc3ccc4c(C5CCC(=O)NC5=O)nn(C)c4c3)[C@@H](C)C2)ccc1-c1ccc(N2CCc3cccc(C(=O)Nc4nc5ccccc5s4)c3C2)nc1C(=O)O (stereo partly drawn) [Compound 344d, 6-(8-(benzo[d]thiazol-2-ylcarbamoyl)-3,4-dihydroisoquinolin-2(1H)-yl)-3-(4-(3-((2S,4R)-1-(2-((3-(2,6-dioxopiperidin-3-yl)-1-methyl-1H-indazol-6-yl)amino)-2-oxoethyl)-2-methylpiperidin-4-yl)propoxy)-2-methylphenyl)picolinic acid]
B (50% ≤ Ymin < 70%)	0.1 to 1	–	–	Cc1c(OCCC[C@@H]2CCN(CC(=O)Nc3cccc4c(C5CCC(=O)NC5=O)nn(C)c34)CC2(F)F)cccc1-c1ccc(N2CCc3cccc(C(=O)Nc4nc5ccccc5s4)c3C2)nc1C(=O)O (stereo partly drawn) [Compound 197b, 6-(8-(benzo[d]thiazol-2-ylcarbamoyl)-3,4-dihydroisoquinolin-2(1H)-yl)-3-(3-(3-((4R)-1-(2-((3-(2,6-dioxopiperidin-3-yl)-1-methyl-1H-indazol-7-yl)amino)-2-oxoethyl)-3,3-difluoropiperidin-4-yl)propoxy)-2-methylphenyl)picolinic acid]
B (50% ≤ Ymin < 70%)	< 0.1	B (50% ≤ Ymin < 70%)	< 0.1	Cc1c(OCCCN2C[C@@H](C)N(CC(=O)Nc3cccc4c(C5CCC(=O)NC5=O)nn(C)c34)[C@@H](C)C2)cccc1-c1ccc(N2CCc3cccc(C(=O)Nc4nc5ccccc5s4)c3C2)nc1C(=O)O (stereo partly drawn) [Compound 117a, 6-[8-(1,3-benzothiazol-2-ylcarbamoyl)-3,4-dihydro-1H-isoquinolin-2-yl]-3-[3-[3-[(3S,5R)-4-[2-[[3-(2,6-dioxo-3-piperidyl)-1-methyl-indazol-7-yl]amino]-2-oxo-ethyl]-3,5-dimethyl-piperazin-1-yl]propoxy]-2-methyl-phenyl]pyridine-2-carboxylic acid]
A (Ymin < 50%)	< 0.1	–	–	Cc1c(OCCCC2CCN([C@H](C)C(=O)Nc3ccc4c(C5CCC(=O)NC5=O)nn(C)c4c3)CC2)cccc1-c1ccc(N2CCc3cccc(C(=O)Nc4nc5ccccc5s4)c3C2)nc1C(=O)O (stereo partly drawn) [Compound 164b, 6-(8-(benzo[d]thiazol-2-ylcarbamoyl)-3,4-dihydroisoquinolin-2(1H)-yl)-3-(3-(3-(1-((2R)-1-((3-(2,6-dioxopiperidin-3-yl)-1-methyl-1H-indazol-6-yl)amino)-1-oxopropan-2-yl)piperidin-4-yl)propoxy)-2-methylphenyl)picolinic acid]
A (Ymin < 50%)	< 0.1	–	–	Cc1c(OCCCN2CCN(CC3CCC4(CC3)CN(c3cccc5c(C6CCC(=O)NC6=O)nn(C)c35)C4)CC2)cccc1-c1ccc(N2CCc3cccc(C(=O)Nc4nc5ccccc5s4)c3C2)nc1C(=O)O (stereo not shown) [Compound 260, 6-(8-(benzo[d]thiazol-2-ylcarbamoyl)-3,4-dihydroisoquinolin-2(1H)-yl)-3-(3-(3-(4-((2-(3-(2,6-dioxopiperidin-3-yl)-1-methyl-1H-indazol-7-yl)-2-azaspiro[3.5]nonan-7-yl)methyl)piperazin-1-yl)propoxy)-2-methylphenyl)picolinic acid]
A (Ymin < 50%)	< 0.1	–	–	Cc1c(O[C@H]2CC[C@H](C[C@H](C)CCN3CCN(c4ccc5c(C6CCC(=O)NC6=O)nn(C)c5c4)CC3)CC2)cccc1-c1ccc(N2CCc3cccc(C(=O)Nc4nc5ccccc5s4)c3C2)nc1C(=O)O (single isomer, unassigned) [Compound 307a]
B (50% ≤ Ymin < 70%)	< 0.1	B (50% ≤ Ymin < 70%)	< 0.1	Cc1c(OCCCN2CCC(CC(=O)Nc3cccc4c(C5CCC(=O)NC5=O)nn(C)c34)CC2)cccc1-c1ccc(N2CCc3cccc(C(=O)Nc4nc5ccccc5s4)c3C2)nc1C(=O)O (stereo not shown) [Compound 122, 6-[8-(1,3-benzothiazol-2-ylcarbamoyl)-3,4-dihydro-1H-isoquinolin-2-yl]-3-[3-[3-[4-[2-[[3-(2,6-dioxo-3-piperidyl)-1-methyl-indazol-7-yl]amino]-2-oxo-ethyl]-1-piperidyl]propoxy]-2-methyl-phenyl]pyridine-2-carboxylic acid]
B (50% ≤ Ymin < 70%)	< 0.1	B (50% ≤ Ymin < 70%)	0.1 to 1	Cc1c(O[C@@H](C)CCC2CCN(CC(=O)Nc3cccc4c(C5CCC(=O)NC5=O)nn(C)c34)CC2)cccc1-c1ccc(N2CCc3cccc(C(=O)Nc4nc5ccccc5s4)c3C2)nc1C(=O)O (stereo partly drawn) [Compound 169a, 6-[8-(1,3-benzothiazol-2-ylcarbamoyl)-3,4-dihydro-1H-isoquinolin-2-yl]-3-[3-[(1S)-3-[1-[2-[[3-(2,6-dioxo-3-piperidyl)-1-methyl-indazol-7-yl]amino]-2-oxo-ethyl]-4-piperidyl]-1-methyl-propoxy]-2-methyl-phenyl]pyridine-2-carboxylic acid]
A (Ymin < 50%)	< 0.1	–	–	Cc1cc(CCCCC2CCN(CC(=O)Nc3ccc4c(C5CCC(=O)NC5=O)nn(C)c4c3)CC2)ccc1-c1ccc(N2CCc3cccc(C(=O)Nc4nc5ccccc5s4)c3C2)nc1C(=O)O (stereo not shown) [Compound 294]

SMILES	Ymin (24 h)	DC50 (24 h, read-out: EC50 (24 h)) [µM]	Ymin (6 h)	DC50 (6 h, read-out: EC50 (6 h)) [µM]
Cc1c(OCCCN2C[C@H]3CC[C@@H](C2)N3CC(=O)Nc2ccc3c(C4CCC(=O)NC4=O)nn(C)c3c2)cccc1-c1ccc(N2CCc3cccc(C(=O)Nc4nc5ccccc5s4)c3C2)nc1C(=O)O (stereo partly drawn) [Compound 127, 6-(8-(benzo[d]thiazol-2-ylcarbamoyl)-3,4-dihydroisoquinolin-2(1H)-yl)-3-(3-(3-((1R,5S)-8-(2-((3-(2,6-dioxopiperidin-3-yl)-1-methyl-1H-indazol-6-yl)amino)-2-oxoethyl)-3,8-diazabicyclo[3.2.1]octan-3-yl)propoxy)-2-methylphenyl)picolinic acid]	A (Ymin < 50%)	< 0.1	B (50% ≤ Ymin < 70%)	< 0.1
Cc1c(OCC[C@H](C)C2CCN(CC(=O)Nc3ccc4c(C5CCC(=O)NC5=O)nn(C)c4c3)CC2)cccc1-c1ccc(N2CCc3cccc(C(=O)Nc4nc5ccccc5s4)c3C2)nc1C(=O)O (stereo partly drawn) [Compound 167b, 6-[8-(1,3-benzothiazol-2-ylcarbamoyl)-3,4-dihydro-1H-isoquinolin-2-yl]-3-[3-[(3S)-3-[1-[2-[[3-(2,6-dioxo-3-piperidyl)-1-methyl-indazol-6-yl]amino]-2-oxo-ethyl]-4-piperidyl]butoxy]-2-methyl-phenyl]pyridine-2-carboxylic acid]	B (50% ≤ Ymin < 70%)	< 0.1	–	–
